The source made the active and inactive calls. No cut-off for these calls is given here.
Key:
MCF7 = test: Cytotoxicity against human MCF7 cells after 72 hrs by MTT assay; format: functional, cell-based; conditions: MCF7, 72 h
[1] = Cytotoxicity against mouse NIH/3T3 cells after 72 hrs by MTT assay; format: cell-based; conditions: NIH3T3, 72 h
A549 [2] = test: Cytotoxicity against human A549 cells after 72 hrs by MTT assay; format: functional, cell-based; conditions: A549, 72 h
RAW264.7 [3] = test: Cytotoxicity against mouse RAW264.7 cells after 72 hrs by MTT assay; format: cell-based; conditions: RAW264.7, 72 h
[4] = Cytotoxicity against mouse B16F10 cells after 72 hrs by MTT assay; format: functional, cell-based; conditions: B16-F10, 72 h
MDA-MB-231 [5] = test: Induction of apoptosis in human MDA-MB-231 cells assessed as viable cells at 20 uM after 24 hrs by annexin-V-FITC/propidium iodide staining based flow cytometry (reference value: 90.77 %); format: functional; conditions: MDA-MB-231, 24 h, read-out: Activity
HeLa = test: Cytotoxicity against human HeLa cells after 72 hrs by MTT assay; format: functional, cell-based
RAW264.7 [6] = test: Induction of apoptosis in mouse RAW264.7 cells assessed as necrotic cells at 20 uM after 24 hrs by annexin-V-FITC/propidium iodide staining based flow cytometry (reference value: 1.81%); format: cell-based; conditions: raw264.7, 24 h
MDA-MB-231 [7] = test: Induction of apoptosis in human MDA-MB-231 cells assessed as necrotic cells at 20 uM after 24 hrs by annexin-V-FITC/propidium iodide staining based flow cytometry (reference value: 5.40 %); format: functional
[8] = Induction of apoptosis in mouse NIH/3T3 cells assessed as late apoptotic cells at 20 uM after 24 hrs by annexin-V-FITC/propidium iodide staining based flow cytometry (reference value: 0.28 %); format: cell-based; conditions: nih3t3, 24 h
[9] = Antitumor activity in mouse B16F10 cells xenografted in C57BL/J mouse assessed as increase in ratio of Bax/Bcl2 in tumor lysates at 6.11 mg/kg, ip by western blot analysis (reference value: 0.4); format: functional, Neoplasm, B16-F10
A549 [10] = test: Induction of apoptosis in human A549 cells assessed as early apoptotic cells at 20 uM after 24 hrs by annexin-V-FITC/propidium iodide staining based flow cytometry (reference value: 1.41 %); format: functional
MDA-MB-231 [11] = test: Induction of apoptosis in human MDA-MB-231 cells assessed as early apoptotic cells at 20 uM after 24 hrs by annexin-V-FITC/propidium iodide staining based flow cytometry (reference value: 0.58 %); format: functional
[12] = Cytotoxicity against human SKOV3 cells after 72 hrs by MTT assay; format: functional, cell-based; conditions: SK-OV-3, 72 h
A549 [13] = test: Induction of apoptosis in human A549 cells assessed as necrotic cells at 20 uM after 24 hrs by annexin-V-FITC/propidium iodide staining based flow cytometry (reference value: 3.23 %); format: functional
B16-F10 [14] = test: Antitumor activity against mouse B16F10 cells xenografted in C57BL/J mouse assessed as inhibition of tumor growth at 6.11 mg/kg, ip; format: functional, organism-based
RAW264.7 [15] = test: Induction of apoptosis in mouse RAW264.7 cells assessed as late apoptotic cells at 20 uM after 24 hrs by annexin-V-FITC/propidium iodide staining based flow cytometry (reference value: 5.64 %); format: cell-based; conditions: raw264.7, 24 h
[16] = Cell cycle arrest in mouse B16F10 cells assessed as accumulation at S phase at 20 uM after 24 hrs by propidium iodide staining based flow cytometry (reference value: 5.4 %); format: functional; conditions: B16-F10
B16-F10 [17] = test: Induction of apoptosis in mouse B16F10 cells assessed as viable cells at 20 uM after 24 hrs by annexin-V-FITC/propidium iodide staining based flow cytometry (reference value: 93.66 %); format: functional; conditions: B16-F10, 24 h, read-out: Activity
B16-F10 [18] = test: Induction of apoptosis in mouse B16F10 cells assessed as increase in cytochrome C level at 20 uM after 36 hrs by western blot analysis; format: functional, cell-based
[19] = Cell cycle arrest in mouse B16F10 cells assessed as accumulation at subG0/G1 phase at 20 uM after 24 hrs by propidium iodide staining based flow cytometry (reference value: 40.7 %); format: functional; conditions: B16-F10
A549 [20] = test: Induction of apoptosis in human A549 cells assessed as late apoptotic cells at 20 uM after 24 hrs by annexin-V-FITC/propidium iodide staining based flow cytometry (reference value: 7.40 %); format: functional
B16-F10 [21] = test: Induction of apoptosis in mouse B16F10 cells assessed as increase in ratio of Bax/Bcl2 level at 20 uM after 36 hrs by western blot analysis (reference value: 0.2); format: functional
[22] = Cell cycle arrest in mouse B16F10 cells assessed as accumulation at G2/M phase at 20 uM after 24 hrs by propidium iodide staining based flow cytometry (reference value: 15.2 %); format: functional; conditions: B16-F10
B16-F10 [23] = test: Induction of apoptosis in mouse B16F10 cells assessed as early apoptotic cells at 20 uM after 24 hrs by annexin-V-FITC/propidium iodide staining based flow cytometry (reference value: 0.46 %); format: functional
B16-F10 [24] = test: Induction of apoptosis in mouse B16F10 cells assessed as increased Bax expression at 20 uM after 36 hrs by western blot analysis; format: functional, cell-based
Gallus gallus = organism: Gallus gallus; test: Antiangiogenic activity in chicken embryo assessed as inhibition of neovascularization at 40 uM after 4 hrs by microscopic analysis; format: functional, tissue-based
B16-F10 [25] = test: Induction of apoptosis in mouse B16F10 cells assessed as increase in p53 expression at 20 uM after 36 hrs by […]; format: functional, cell-based
[26] = Induction of apoptosis in mouse NIH/3T3 cells assessed as viable cells at 20 uM after 24 hrs by annexin-V-FITC/propidium iodide staining based flow cytometry (reference value: 99.06 %); format: cell-based, NIH3T3; conditions: read-out: Activity
[27] = Induction of apoptosis in mouse NIH/3T3 cells assessed as necrotic cells at 20 uM after 24 hrs by annexin-V-FITC/propidium iodide staining based flow cytometry (reference value: 0.24 %); format: cell-based; conditions: nih3t3, 24 h
B16-F10 [28] = test: Induction of apoptosis in mouse B16F10 cells assessed as increase in cleaved caspase 3 level at 20 uM after 36 hrs by western blot analysis; format: functional, cell-based
MDA-MB-231 [29] = test: Induction of apoptosis in human MDA-MB-231 cells assessed as late apoptotic cells at 20 uM after 24 hrs by annexin-V-FITC/propidium iodide staining based flow cytometry (reference value: 3.25 %); format: functional
[30] = Toxicity in C57BL/J mouse xenografted with mouse B16F10 cells assessed as mortality rate at 6.11 mg/kg, ip measured 45 days after tumor inoculation; format: organism-based, B16-F10; conditions: in vivo, read-out: Activity
B16-F10 [31] = test: Induction of apoptosis in mouse B16F10 cells assessed as late apoptotic cells at 20 uM after 24 hrs by annexin-V-FITC/propidium iodide staining based flow cytometry (reference value: 4.47 %); format: functional
B16-F10 [32] = test: Induction of apoptosis in mouse B16F10 cells assessed as necrotic cells at 20 uM after 24 hrs by annexin-V-FITC/propidium iodide staining based flow cytometry (reference value: 1.41 %); format: functional
A549 [33] = test: Induction of apoptosis in human A549 cells assessed as viable cells at 20 uM after 24 hrs by annexin-V-FITC/propidium iodide staining based flow cytometry (reference value: 87.96 %); format: functional; conditions: A549, 24 h, read-out: Activity
[34] = Induction of apoptosis in mouse RAW264.7 cells assessed as viable cells at 20 uM after 24 hrs by annexin-V-FITC/propidium iodide staining based flow cytometry (reference value: 89.11 %); format: cell-based; conditions: read-out: Activity
[35] = Induction of apoptosis in mouse NIH/3T3 cells assessed as early apoptotic cells at 20 uM after 24 hrs by annexin-V-FITC/propidium iodide staining based flow cytometry (reference value: 0.43 %); format: cell-based; conditions: nih3t3, 24 h
[36] = Cell cycle arrest in mouse B16F10 cells assessed as accumulation at G1 phase at 20 uM after 24 hrs by propidium iodide staining based flow cytometry (reference value: 38.8 %); format: functional; conditions: B16-F10
RAW264.7 [37] = test: Induction of apoptosis in mouse RAW264.7 cells assessed as early apoptotic cells at 20 uM after 24 hrs by annexin-V-FITC/propidium iodide staining based flow cytometry (reference value: 3.44 %); format: cell-based; conditions: raw264.7, 24 h
[38] = Cytotoxicity against mouse B16F10 cells at 20 uM after 72 hrs by MTT assay in presence of 20 uM HYD; format: functional, B16-F10
[39] = Cytotoxicity against mouse B16F10 cells at 10 uM after 72 hrs by MTT assay in presence of 10 uM HYD; format: functional, B16-F10
[40] = Cytotoxicity against mouse B16F10 cells at 10 and 20 uM after 72 hrs by MTT assay; format: functional, B16-F10

Compound: CCCCCCCCCC[N+](C)(CCCCCCCCCC)CCNC(=O)[C@@]1(O)CC[C@H]2[C@@H]3CCC4=CC(=O)CC[C@]4(C)[C@H]3[C@@H](O)C[C@@]21C
- IC50 (MCF7): 3.7 µM
- IC50 [1]: 3.77 µM
- IC50 (A549 [2]): 12.6 µM
- IC50 (RAW264.7 [3]): 6.2 µM
- IC50 [4]: 4.7 µM

Compound: CCCCCCCCCCCCCC[N+](C)(CCCCCCCCCCCCCC)CCNC(=O)[C@@]1(O)CC[C@H]2[C@@H]3CCC4=CC(=O)CC[C@]4(C)[C@H]3[C@@H](O)C[C@@]21C
- IC50 (MCF7): 13.6 µM
- IC50 [1]: 4.85 µM
- IC50 (A549 [2]): 3.3 µM
- IC50 (RAW264.7 [3]): 8.77 µM
- IC50 [4]: 16.2 µM

Compound: C[C@]12CCC(=O)C=C1CC[C@@H]1[C@@H]2[C@@H](O)C[C@@]2(C)[C@H]1CC[C@]2(O)C(=O)CO [HYDROCORTISONE]
- viability at 20 µM (MDA-MB-231 [5]): 87.4%
- IC50 (HeLa): > 20 µM
- Activity (RAW264.7 [6]): 0.69%
- IC50 (MCF7): > 20 µM
- Activity (MDA-MB-231 [7]): 2.46%
- Activity [8]: 0.16%
- Ratio [9]: 0.8
- Activity (A549 [10]): 1.55%
- Activity (MDA-MB-231 [11]): 2.05%
- IC50 [12]: > 20 µM
- Activity (A549 [13]): 2.97%
- inhibition (B16-F10 [14]): Active
- Activity (RAW264.7 [15]): 3.13%
- IC50 [1]: > 20 µM
- Activity [16]: 4.6%
- IC50 (A549 [2]): > 20 µM
- viability at 20 µM (B16-F10 [17]): 89%
- Activity (B16-F10 [18]): Active
- Activity [19]: 56.6%
- Activity (A549 [20]): 7.09%
- Ratio (B16-F10 [21]): 0.3
- Activity [22]: 17.9%
- Activity (B16-F10 [23]): 0.77%
- Activity (B16-F10 [24]): Active
- inhibition (Gallus gallus): inactive
- Activity (B16-F10 [25]): Active
- viability at 24 h, 20 µM [26]: 99.5%
- IC50 (RAW264.7 [3]): > 20 µM
- IC50 [4]: > 20 µM
- Activity [27]: 0.1%
- Activity (B16-F10 [28]): Active
- Activity (MDA-MB-231 [29]): 8.1%
- mortality at 1080 h [30]: 70%
- Activity (B16-F10 [31]): 9.14%
- Activity (B16-F10 [32]): 1.04%
- viability at 20 µM (A549 [33]): 88.4%
- viability at 24 h, 20 µM [34]: 93.8%
- Activity [35]: 0.01%
- Activity [36]: 20.9%
- Activity (RAW264.7 [37]): 2.39%

Compound: CCCCCCCCCCCC[N+](C)(CCCCCCCCCCCC)CCNC(=O)[C@@]1(O)CC[C@H]2[C@@H]3CCC4=CC(=O)CC[C@]4(C)[C@H]3[C@@H](O)C[C@@]21C
- IC50 (MCF7): 4.6 µM
- IC50 [1]: 3.36 µM
- IC50 (A549 [2]): 3.4 µM
- IC50 (RAW264.7 [3]): 4 µM
- IC50 [4]: 3.4 µM

Compound: CCCCCCCCCCCCCCCC[N+](C)(CCCCCCCCCCCCCCCC)CCNC(=O)OC(C)(C)C.[Cl-]
- Activity [38]: 20%
- Activity (RAW264.7 [6]): 0.86%
- Activity [8]: 0.96%
- Activity [39]: 20%
- Activity (A549 [10]): 2.7%
- Activity (A549 [13]): 1.65%
- Activity (RAW264.7 [15]): 4.18%
- viability at 20 µM (B16-F10 [17]): 81.5%
- Activity (A549 [20]): 13.95%
- Activity (B16-F10 [23]): 1.75%
- viability at 24 h, 20 µM [26]: 94.9%
- Activity [27]: 3.23%
- Activity (B16-F10 [31]): 12.56%
- Activity (B16-F10 [32]): 4.16%
- viability at 20 µM (A549 [33]): 81.7%
- viability at 24 h, 20 µM [34]: 91.3%
- Activity [35]: 0.94%
- Activity [40]: 20%
- Activity (RAW264.7 [37]): 3.66%

Compound: CCCCCCCC[N+](C)(CCCCCCCC)CCNC(=O)[C@@]1(O)CC[C@H]2[C@@H]3CCC4=CC(=O)CC[C@]4(C)[C@H]3[C@@H](O)C[C@@]21C
- IC50 (MCF7): 6.7 µM
- IC50 [1]: 7.4 µM
- IC50 (A549 [2]): 17.6 µM
- IC50 (RAW264.7 [3]): 12.7 µM
- IC50 [4]: 4.5 µM

— ChEMBL document CHEMBL3751695, “Cationic lipid-conjugated hydrocortisone as selective antitumor agent” (Eur J Med Chem, 2016)
